# Test results as given in ChEMBL document CHEMBL1148466, “Self-association of okadaic acid upon complexation with potassium ion” (J Med Chem, 2004).
# Columns and labels:
# [1] = molecular target: Serine/threonine-protein phosphatase PP1-gamma catalytic subunit (Homo sapiens, UniProt P36873); experiment: Inhibitory activity against serine/threonine protein phosphatase 1(PP1)
# [2] = Inhibitory activity against serine/threonine protein phosphatase 2 (PP2A)
# Chain of Serine/threonine-protein phosphatase PP1-gamma catalytic subunit (P36873 whole entry): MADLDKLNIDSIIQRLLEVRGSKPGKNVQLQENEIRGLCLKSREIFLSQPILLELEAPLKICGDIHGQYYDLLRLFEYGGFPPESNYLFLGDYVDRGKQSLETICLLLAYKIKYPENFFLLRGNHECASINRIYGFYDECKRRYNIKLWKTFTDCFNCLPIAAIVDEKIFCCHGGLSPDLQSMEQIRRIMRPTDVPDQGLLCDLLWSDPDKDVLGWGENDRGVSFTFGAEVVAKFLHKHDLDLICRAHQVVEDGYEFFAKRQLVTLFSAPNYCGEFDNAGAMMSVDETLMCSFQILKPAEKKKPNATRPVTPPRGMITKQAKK
structure (smiles),measurement,setting,value
C=C1[C@@H](O)[C@@H]2O[C@]3(CC[C@H](/C=C/[C@@H](C)[C@@H]4CC(C)=C[C@@]5(O[C@H](C[C@@](C)(O)C(=O)O)CC[C@H]5O)O4)O3)CC[C@H]2O[C@@H]1[C@@H](O)C[C@H](C)[C@H]1O[C@@]2(CCCCO2)CC[C@H]1C [OKADAIC ACID],IC50,[1],0.02 µM
same,IC50,[2],0.0002 µM
